# In patent publication US20250099488A1, “ANTI-PARASITE COMPOUNDS” (AUSTRALIAN NATIONAL UNIVERSITY, priority 2022, published 2025):
# Read-outs that look alike come from different tables or passages of the source.
# Legend:
# [1] = system: P. falciparum infected red blood cells (iRBC) vs uninfected red blood cells (uRBC); assay: Uptake of fluorescent cholesterol analogues into infected vs uninfected RBCs (flow cytometry, microscopy); assay type: cell-based, Plasmodium falciparum; conditions: 24 hrs incubation, ring-stage culture, cholesterol-depleted media
# Method: (§1) For quantification, events were measured on a LSR II or LSRFortessa Flow Cytometer. NBD/BODIPY fluorescence was detected at 488 nm ex/530 nm em. Hoechst 33342 (Thermo Fisher) fluorescence was detected at 410 nm ex/450 nm em. Resorufin fluorescence was detected at 561 nm ex/610 nm em. Mitotracker Deep Red was detected at 633 nm ex/670 nm em. Dehydroergosterol was detected at 355 nm ex/450 nm em.
# (§2) Data were initially processed using FlowJo. RBCs were gated on FSC and SCC. iRBCs (positive) and uRBCs (negative) were differentiated by Hoechst or Mitotracker fluorescence. The geometric mean of fluorescence intensity (mean fluorescence intensity, MFI) and/or the percentage of each population (e.g. Hoechst positive) was calculated with FlowJo. Background fluorescence was subtracted based on unstained controls (buffer or solvent only). Except where otherwise specified, MFI data was normalised between experiments by setting the fluorescence of untreated uRBCs to 1.
# Ring-stage parasites at 4% parasitaemia and 2% haematocrit were incubated with 2.02 uM cholesterol analogues or solvent controls in cholesterol-depleted media for 24 hours at 37° C. under microaerophilic conditions. […] Samples were read on a flow cytometer or imaged with fluorescence microscopy as described above. […]
# [2] = system: chloroquine sensitive P. falciparum strains 3D7 and C2_GC03; assay: Growth inhibition of chloroquine sensitive P. falciparum strains; assay type: cell-based, Plasmodium falciparum; conditions: FIG. 21B/21C
# Method: (§3) Growth inhibition was investigated according to methods described by Smilkstein et al. (2004) with modifications by Spry et al. (2013). Compounds or solvent controls (DMSO, ethanol, or ethyl acetate) were serially diluted 2-fold across flat-bottom 96-well plates. Complete culture media without compound was used as a negative control. Chloroquine (100-200 nM) {Sigma C6628} was used as a positive control to determine background fluorescence. The parasitaemia of a culture containing predominantly ring stage parasites was counted by Giemsa smear. The parasitaemia was adjusted to 1% by addition of fresh uRBCs, and added to the plate at a final haematocrit of 1%, with 200 μL per well. The plates were incubated at 37° C. under humid microaerophilic conditions. After 72 hours (or the indicated timepoint), the plates were transferred to a −18° C. freezer to stop the assay and lyse cells. Plates were thawed and lysate was mixed 1:1 with SYBR Safe DNA Gel Stain {Invitrogen 33102}(final concentration 1/10000) diluted in lysis buffer (20 mM TRIS, 5 mM EDTA, 0.008% w/v Saponin, 0.08% w/v Triton-X 100, pH 7.5). Fluorescence was read at 490 nm excitation/520 nm emission on a FLUOstar Optima fluorescence plate reader {BMG Labtech}. […]
# [3] = HEK293 cell viability assay (MTT); assay type: cell-based, human; conditions: human, 72 hours, FIG. 21E, conjugate = BC75D, read-out: IC50, HEK293 cytotoxicity
# Method: HEK293 cell viability assays began with 5000 cells per well. 10 μg/mL cycloheximide was used as a no-growth control. Metabolic capacity (indicating viability) was measured by incubation with 0.45 mg/mL methylthiazolyldiphenyl-tetrazolium bromide (MTT; Sigma M2128) for two hours followed by crystal solubilisation in SDS.
# [4] = system: human foreskin fibroblasts (HFF); assay: HFF growth inhibition assay (SYBR Safe); assay type: cell-based; conditions: 72 hrs
# Method: Cells were incubated with a serial dilution of each compound, or media/DMSO alone. The protein synthesis inhibitor cycloheximide (10 μg/mL) was used as a positive control to determine background fluorescence. Approximately 5000 cells were seeded in each well. […] Plates were transferred to a −18° C. freezer. […] Fluorescence was read at 490 nm excitation/520 nm emission on a FLUOstar Optima fluorescence plate reader.
# HFF cell growth inhibition assays began with 5000 cells per well. 10 μg/mL cycloheximide was used as a no-growth control.
# [5] = system: P. falciparum gametocytes (stage III-IV); assay: Gametocyte viability assay (MitoTracker, flow cytometry); assay type: cell-based, Plasmodium falciparum; conditions: FIG. 9C
# Description: Gametocyte assays begun eight days post-invasion (Stage III-IV).
# (§4) Growth inhibition data were normalised by subtracting background fluorescence, luminescence, absorbance, or percentage of cells from a no-growth or no-viability control (high drug concentration, no-parasite control, or time=0 measurement as specified), and expressed as a percentage of the growth or cell percentage in the negative control (culture media alone or solvent control) at the indicated timepoint (or to the highest measurement reached during the assay for FIG. 15B).
# Leishmania tarentolae = Leishmania tarentolae growth inhibition; assay type: cell-based; conditions: 72 hours, FIG. 22
# [6] = system: chloroquine resistant P. falciparum strain C4_Dd2; assay: Growth inhibition of chloroquine resistant P. falciparum strain; assay type: cell-based, Plasmodium falciparum; conditions: 72 hours, FIG. 21D; conjugate = BC75D
# Method: as §3
# asexual P. falciparum = assay: Plasmodium growth inhibition assay (SYBR Safe), asexual stages; assay type: cell-based, Plasmodium falciparum; conditions: 72 hrs, FIG. 10B
# Method: Compounds or solvent controls (DMSO, ethanol, or ethyl acetate) were serially diluted 2-fold across flat-bottom 96-well plates. Complete culture media without compound was used as a negative control. Chloroquine (100-200 nM) {Sigma C6628} was used as a positive control to determine background fluorescence. The parasitaemia of a culture containing predominantly ring stage parasites was counted by Giemsa smear. The parasitaemia was adjusted to 1% by addition of fresh uRBCs, and added to the plate at a final haematocrit of 1%, with 200 μL per well. The plates were incubated at 37° C. under humid microaerophilic conditions. […] Fluorescence was read at 490 nm excitation/520 nm emission on a FLUOstar Optima fluorescence plate reader {BMG Labtech}.
# Growth inhibition data were normalised by subtracting background fluorescence from a no-growth control (high drug concentration or time=0 measurement as specified), and expressed as a percentage of the growth in the negative control (media alone or solvent control) either at the indicated timepoint, or to the highest measurement reached during the assay.
# P. falciparum asexual parasite assays begun with ring-stage parasites at 1% parasitaemia and 1% haematocrit. 200 nM chloroquine (Sigma C6628) was used as a no-growth control. […] 17]; 8 (2):e54974).
# as §4
# [7] = system: P. falciparum infected red blood cells (iRBC) vs uninfected red blood cells (uRBC); assay: Uptake and cleavage of steroid-resorufin conjugate in iRBCs vs uRBCs; assay type: cell-based, Plasmodium falciparum; conditions: steroid-resorufin conjugate (PAYb193), FIG. 10A
# Method: Images were collected and deconvoluted on a Deltavision Deconvolution microscope at 1000× magnification, with a resolution of 0.067 μm per pixel. NBD and BODIPY fluorescence were detected at 475/28 nm excitation and 525/48 nm emission. Hoechst fluorescence (nucleic acid) was detected at 390/18 nm and ex/435/48 nm em. Resorufin fluorescence was detected at 575/25 nm ex and 626/45 nm em.
# as §1, §2
compound,measurement,setting,value
CC(C)CCC[C@@H](C)[C@H]1CC[C@H]2[C@@H]3CC=C4C[C@@H](OC(=O)CCCCCNc5ccc([N+](=O)[O-])c6nonc56)CC[C@]4(C)[C@H]3CC[C@]12C [3-hexanoyl-NBD-cholesterol],Uptake in iRBC compared to uRBC (fold change of fluorescence),[1],not significantly different
"CCN(CCO)CCCC(C)Nc1ccnc2cc(Cl)ccc12 (stereo not shown) [hydroxychloroquine, reference compound]",Fold better efficacy than hydroxychloroquine-steroid conjugates,[2],1.4-1.6 fold
same,IC50 at 72 h,[3]; HEK293 cells,38.4 µM
COc1cc(NC(C)CCCNC(=O)CCC(=O)O[C@H]2CC[C@H]3[C@@H]4CC=C5C[C@@H](O)CC[C@]5(C)[C@H]4CC[C@]23C)c2ncccc2c1 (stereo partly shown) [BC5B],Maximal inhibition of HFF growth at the range of concentrations tested,[4],≤ 50%
same,Susceptibility of early (I-III) and late stage (III-IV) gametocytes,[5],both early (A) and late-stage (B) gametocytes are equally susceptible
same,IC50,Leishmania tarentolae,higher efficacy than primaquine
CCN(CCCC(C)Nc1ccnc2cc(Cl)ccc12)CCOC(=O)CCC(=O)O[C@H]1CC[C@H]2[C@@H]3CC=C4C[C@@H](O)CC[C@]4(C)[C@H]3CC[C@]12C (stereo partly shown) [hydroxychloroquine-steroid conjugate],Times more effective at killing resistant parasites than hydroxychloroquine,[6],2.6 fold
same,IC50 at 72 h,[3],13 µM
"CC12CCC(O)CC1=CCC1C2CCC2(C)C(OC(=O)CCC(=O)OCOc3ccc4nc5ccc(=O)cc-5oc4c3)CCC12 (stereo not drawn) [Payb193, 3β-hydroxyandrost-5-en-17β-yl succinate-(hydroxymethoxy)-resorufin ester]",Killing of the parasite compared with uncoupled resorufin (dose-response curve),asexual P. falciparum,can kill the parasite at lower concentrations than the uncoupled resorufin base molecule
same,"Uptake of the probe, iRBCs vs uRBCs",[7],approximately 2 fold
CC(C)(C)OOCCO[C@H]1CC[C@H]2[C@@H]3CC=C4C[C@@H](O)CC[C@]4(C)[C@H]3CC[C@]12C [BC86D],IC50,"Leishmania tarentolae; Leishmania tarentolae, read-out: IC50",< 1 µM
"C[C@]12CC[C@H]3[C@@H](CC=C4C[C@@H](O)CC[C@@]43C)[C@@H]1CC[C@@H]2OC(=O)CCC(=O)OCOc1ccc2nc3ccc(=O)cc-3oc2c1 [steroid-resorufin conjugate, 3β-Hydroxyandrost-5-en-17β-yl succinate-(hydroxymethoxy)-resorufin ester]","Uptake of the probe, iRBCs vs uRBCs",[7],approximately 2 fold
CC1=CC(C)=[N+]2C1=C(CC[C@@H](C)[C@H]1CC[C@H]3[C@@H]4CC=C5C[C@@H](O)CC[C@]5(C)[C@H]4CC[C@]13C)c1c(C)cc(C)n1[B-]2(F)F [24-BODIPY-cholesterol],Uptake in iRBC compared to uRBC (fold change of fluorescence),[1],seems to get stuck at the RBC membrane
